According to the NIST ThermoML archive (doi:10.1021/acs.jced.5b00918):
Numbers after ± are expanded uncertainties.

Assays:
[1] = 101.33 kPa, Buoyancy - hydrostatic balance
[2] = refractive index (Na D-line) (dimensionless); details: 101.33 kPa, Liquid, Standard Abbe refractometry

CCCOC(C)=O [propyl ethanoate]
mass density ([1]; 293.2 K, Liquid): 889 ± 2 kg/m3 | refractive index ([2]; 293.2 K): 1.3842 ± 0.0005

CCCCC(C)=O [2-hexanone]
mass density ([1]; 293.2 K, Liquid): 811 ± 2 kg/m3 | refractive index ([2]; 293.2 K): 1.40065 ± 0.00054

CCCCCCCCO [octan-1-ol]
mass density ([1]; 293.2 K, Liquid): 823.6 ± 0.3 kg/m3 | refractive index ([2]; 293.2 K): 1.4288 ± 0.0005

Oc1ccccc1 [phenol]
mass density ([1]; 314.5 K, Liquid): 1058.1 ± 0.3 kg/m3 | refractive index ([2]; 314.5 K): 1.54182 ± 0.00051

Oc1ccc(O)cc1 [1,4-benzenediol]
mass density ([1]; 293.2 K, Crystal): 1332 ± 3 kg/m3
